The values below are quoted from earlier work in US8329435B2, “Methods for improved uptake of biological molecules” (American Symbolic, LLC, priority 2007, dated 2012).

For this data set the following is noted: unmodified glutathione.

With `N[C@@H](CCC(=O)N[C@@H](CS)C(=O)NCC(=O)O)C(=O)O` [glutathione], the “half-life of glutathione in the blood” value (blood) was “around 120 seconds”. Moreover, where the note is “blood stream”, the “half-life in the blood stream” value was “about a minute and a half”.
